Tests used:
T47D cells = assay: T47D proliferation; type: cell-based; conditions: Homo sapiens
PI3K γ = PI3K γ (Homo sapiens (Human), UniProt P48736); assay: PI 3-Kinase (human) HTRF assay, p110γ; type: biochemical; conditions: read-out: PI3K γ IC50
Method: (§1) An exemplary system is PI 3-Kinase (human) HTRF™ Assay from Upstate. […] Briefly, the assay is a time resolved FRET assay that indirectly measures PIP3 product formed by the activity of a PI3-K. The kinase reaction is performed in a microtitre plate (e.g., a 384 well microtitre plate). The total reaction volume is approximately 20 ul per well. In the first step, each well receives 2 ul of test compound in 20% dimethylsulphoxide resulting in a 2% DMSO final concentration. Next, approximately 14.5 ul of a kinase/PIP2 mixture (diluted in 1× reaction buffer) is added per well for a final concentration of 0.25-0.3 ug/ml kinase and 10 μM PIP2. The plate is sealed and incubated for 15 minutes at room temperature. To start the reaction, 3.5 ul of ATP (diluted in 1× reaction buffer) is added per well for a final concentration of 10 μM ATP. The plate is sealed and incubated for 1 hour at room temperature. The reaction is stopped by adding 5 ul of Stop Solution per well and then 5 ul of Detection Mix is added per well. The plate is sealed, incubated for 1 hour at room temperature, and then read on an appropriate plate reader. Data is analyzed and IC50s are generated using GraphPad Prism 5. For PI3K α, β, δ, and γ, the nM concentration of inhibitor to reach IC50 is provided.

PI3K α = PI3K α (Homo sapiens (Human), UniProt P42336); assay: PI 3-Kinase (human) HTRF assay, p110α/p85α; type: biochemical
Method: as §1

PI3K β = PI3K β (Homo sapiens (Human), UniProt P42338); assay: PI 3-Kinase (human) HTRF assay, p110β/p85α; type: biochemical
Method: as §1

PI3K δ = PI3K δ (Homo sapiens (Human), UniProt O00329); assay: PI 3-Kinase (human) HTRF assay, p110δ/p85α; type: biochemical
Method: as §1

mTORC = mTORC (Homo sapiens (Human), UniProt P42345); assay: mTOR inhibition assay (radiometric or LanthaScreen TR-FRET); type: biochemical
mTORC, sequence (P42345 1360-2549): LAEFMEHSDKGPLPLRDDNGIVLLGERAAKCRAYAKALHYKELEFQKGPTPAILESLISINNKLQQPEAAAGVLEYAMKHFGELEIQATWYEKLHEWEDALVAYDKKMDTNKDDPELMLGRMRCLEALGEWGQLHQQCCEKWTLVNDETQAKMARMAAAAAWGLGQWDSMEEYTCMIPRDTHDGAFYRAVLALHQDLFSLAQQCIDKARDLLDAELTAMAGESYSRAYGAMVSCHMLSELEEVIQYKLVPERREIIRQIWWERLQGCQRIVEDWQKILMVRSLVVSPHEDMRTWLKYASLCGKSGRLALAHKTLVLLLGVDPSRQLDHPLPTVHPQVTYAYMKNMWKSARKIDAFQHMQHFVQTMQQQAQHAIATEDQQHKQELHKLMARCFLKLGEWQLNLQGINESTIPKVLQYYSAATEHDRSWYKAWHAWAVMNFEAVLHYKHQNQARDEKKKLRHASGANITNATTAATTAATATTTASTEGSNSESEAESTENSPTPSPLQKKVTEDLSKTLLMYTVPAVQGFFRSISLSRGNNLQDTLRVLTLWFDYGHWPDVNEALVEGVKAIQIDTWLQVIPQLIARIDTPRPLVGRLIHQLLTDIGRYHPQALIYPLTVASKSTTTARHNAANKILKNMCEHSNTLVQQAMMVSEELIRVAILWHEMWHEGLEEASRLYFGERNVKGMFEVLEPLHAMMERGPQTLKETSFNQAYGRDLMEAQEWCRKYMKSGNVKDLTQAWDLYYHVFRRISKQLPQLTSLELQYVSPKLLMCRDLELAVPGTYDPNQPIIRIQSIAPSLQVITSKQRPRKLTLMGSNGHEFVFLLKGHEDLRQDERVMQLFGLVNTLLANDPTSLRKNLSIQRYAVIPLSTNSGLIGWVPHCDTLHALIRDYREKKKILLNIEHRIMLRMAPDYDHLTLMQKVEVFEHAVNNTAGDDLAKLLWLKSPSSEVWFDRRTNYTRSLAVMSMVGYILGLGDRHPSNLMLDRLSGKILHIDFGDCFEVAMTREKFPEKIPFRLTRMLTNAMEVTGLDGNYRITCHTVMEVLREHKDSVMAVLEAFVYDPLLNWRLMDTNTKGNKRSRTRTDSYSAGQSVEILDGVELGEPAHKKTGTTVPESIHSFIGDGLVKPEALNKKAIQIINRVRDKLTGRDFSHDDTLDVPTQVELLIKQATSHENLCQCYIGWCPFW
Method: The compounds described herein can be tested against recombinant mTOR (Invitrogen) in an assay containing 50 mM HEPES, pH 7.5, 1 mM EGTA, 10 mM MgCl2, 2.5 mM, 0.01% Tween, 10 μM ATP (2.5 μCi of μ-32P-ATP), and 3 μg/mL BSA. Rat recombinant PHAS-1/4EBP1 (Calbiochem; 2 mg/mL) is used as a substrate. Reactions are terminated by spotting onto nitrocellulose, which is washed with 1M NaCl/1% phosphoric acid (approximately 6 times, 5-10 minutes each). Sheets are dried and the transferred radioactivity quantitated by phosphorimaging.
For instance, one can use Invitrogen's LanthaScreen™ Kinase assay to test the inhibitors of mTOR disclosed herein. This assay is a time resolved FRET platform that measures the phosphorylation of GFP labeled 4EBP1 by mTOR kinase. The kinase reaction is performed in a white 384 well microtitre plate. The total reaction volume is 20 ul per well and the reaction buffer composition is 50 mM HEPES pH7.5, 0.01% Polysorbate 20, 1 mM EGTA, 10 mM MnCl2, and 2 mM DTT. In the first step, each well receives 2 ul of test compound in 20% dimethylsulphoxide resulting in a 2% DMSO final concentration. Next, 8 ul of mTOR diluted in reaction buffer is added per well for a 60 ng/ml final concentration. To start the reaction, 10 ul of an ATP/GFP-4EBP1 mixture (diluted in reaction buffer) is added per well for a final concentration of 10 μM ATP and 0.5 μM GFP-4EBP1. The plate is sealed and incubated for 1 hour at room temperature. […] The plate is sealed, incubated for 1 hour at room temperature, and then read on a plate reader set up for LanthaScreen™ TR-FRET. Data is analyzed and IC50s are generated using GraphPad Prism 5.

MDA-MB-361 tumors = assay: Xenogenic mouse model of breast cancer (MDA-MB-361); type: in vivo; conditions: 70 mg/kg Pan-PI3K inhibitor, 60 mg/kg Compound A
marginal zone B cells = assay: Marginal zone B cells in mouse spleen (FACS); type: in vivo; conditions: 70 mg/kg Pan-PI3K inhibitor, 60 mg/kg Compound A; spleens harvested 2 hrs after last dose
Text: Spleens were harvested 2 hrs after the last dose, processed and stained with appropriate antibodies (marginal zone B cell: B220+;CD23−;CD21hi) and analyzed for staining on GUAVA EasyCyte FACS machine using Guava Cytosoft 5.2 software.

[1] = tested on: anti-TNP antibody production; assay: TNP-Ficoll T-cell independent B-cell activation assay; type: in vivo, mouse; conditions: mice immunized with TNP-Ficoll; 70 mg/kg GDC0941; 30, 60, 120 mg/kg Compound A; 7 days
Method: To test the effects of the compounds of the present invention in suppressing T cell independent antibody production, the TNP-Ficoll B-cell activation assay is used as described herein. Compounds of the present invention are dissolved in an appropriate vehicle (e.g. 5% 1-methyl-2-pyrrolidinone, 85% polyethylene glycol 400, 10% Solutor). Compounds are administered orally approximately 1 hr before TNP-Ficoll treatment to 4-10 week old mice. To study the effects of the compounds on B-cell activation, one set of mice are grouped according to the following table:
Four animals in group 1, and eight animals in groups 2 to 7 are euthanized in CO2 2 hours after the last compound administration on day 7. […]
Serum samples are analyzed for anti-TNP antibody titers by ELISA as described herein. […] HRP substrate (200 μl ABTS solution+30% H2O2+10 ml citrate buffer) is added to each well at 100 μl/well, incubated 2-20 minutes in the dark and the amount of anti-TNP IgG3 is determined spectrophotometrically at 405 nm. Similarly, anti-TNP IgM and total anti-TNP Ab are determined using anti-mouse IgM-HRP and anti-mouse Ig-HRP respectively.
Antibody production was measured using ELISA and plotted as as a percentage of control group that were treated with vehicle.

[2] = PBS pH 7.4, 37° C., 24 hours, 5 μM reference compound; cited from earlier work
[3] = control or reference compound, 5 μM; cited from earlier work
[4] = tested on: PI3K/Akt/mTor signaling in blood cells; assay: Kinase signaling in blood (phosflow); type: cell-based; conditions: anti-CD3 stimulated splenocytes or PBMC
Method: PI3K/Akt/mTor signaling is measured in blood cells using the phosflow method (Methods Enzymol. 2007; 434:131-54). The advantage of this method is that it is by nature a single cell assay so that cellular heterogeneity can be detected rather than population averages. This allows concurrent dinstinction of signaling states in different populations defined by other markers. Phosflow is also highly quantitative. To test the effects of one or more compounds disclosed herein, unfractionated splenocytes, or peripheral blood mononuclear cells are stimulated with anti-CD3 to initiate T-cell receptor signaling. The cells are then fixed and stained for surface markers and intracellular phosphoproteins.
Similarly, aliquots of whole blood are incubated for 15 minutes with vehicle (e.g., 0.1% DMSO) or kinase inhibitors at various concentrations, before addition of stimuli to crosslink the T cell receptor (TCR) (anti-CD3 with secondary antibody) or the B cell receptor (BCR) using anti-kappa light chain antibody (Fab′2 fragments). After approximately 5 and 15 minutes, samples are fixed (e.g., with cold 4% paraformaldehyde) and used for phosflow. […] The level of phosphrylation of kinase substrates such as Akt and S6 are then measured by incubating the fixed cells with labeled antibodies specific to the phosphorylated isoforms of these proteins. The population of cells is then analyzed by flow cytometry.

PI3K α, sequence (P42336 whole entry): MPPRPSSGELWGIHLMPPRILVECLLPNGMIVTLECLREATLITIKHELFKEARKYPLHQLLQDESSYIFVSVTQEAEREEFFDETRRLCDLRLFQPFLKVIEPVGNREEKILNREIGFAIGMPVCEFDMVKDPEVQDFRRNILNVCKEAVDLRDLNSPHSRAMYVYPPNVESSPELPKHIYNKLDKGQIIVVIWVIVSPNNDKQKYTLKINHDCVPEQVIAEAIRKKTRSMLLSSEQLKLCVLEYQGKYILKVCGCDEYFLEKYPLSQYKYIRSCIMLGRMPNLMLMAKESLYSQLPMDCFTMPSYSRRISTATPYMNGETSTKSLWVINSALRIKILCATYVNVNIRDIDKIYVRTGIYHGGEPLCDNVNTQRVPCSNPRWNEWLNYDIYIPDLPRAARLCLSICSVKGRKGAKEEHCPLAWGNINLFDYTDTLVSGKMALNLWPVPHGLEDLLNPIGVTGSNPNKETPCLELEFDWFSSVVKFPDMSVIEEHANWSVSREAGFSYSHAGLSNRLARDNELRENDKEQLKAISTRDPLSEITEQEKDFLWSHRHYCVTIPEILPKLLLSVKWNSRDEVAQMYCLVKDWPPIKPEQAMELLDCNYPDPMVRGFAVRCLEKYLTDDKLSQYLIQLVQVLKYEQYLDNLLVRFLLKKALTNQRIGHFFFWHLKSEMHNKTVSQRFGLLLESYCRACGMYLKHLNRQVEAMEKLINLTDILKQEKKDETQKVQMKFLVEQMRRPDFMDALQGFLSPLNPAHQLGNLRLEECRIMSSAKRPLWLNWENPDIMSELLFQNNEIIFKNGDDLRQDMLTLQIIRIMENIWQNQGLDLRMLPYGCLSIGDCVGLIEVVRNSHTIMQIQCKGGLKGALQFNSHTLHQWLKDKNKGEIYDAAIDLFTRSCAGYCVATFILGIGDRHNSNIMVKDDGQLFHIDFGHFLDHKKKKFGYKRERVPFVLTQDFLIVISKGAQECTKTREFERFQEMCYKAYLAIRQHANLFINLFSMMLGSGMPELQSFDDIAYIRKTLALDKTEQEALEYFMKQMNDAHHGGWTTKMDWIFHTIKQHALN
PI3K α, sequence (P27986 whole entry partner): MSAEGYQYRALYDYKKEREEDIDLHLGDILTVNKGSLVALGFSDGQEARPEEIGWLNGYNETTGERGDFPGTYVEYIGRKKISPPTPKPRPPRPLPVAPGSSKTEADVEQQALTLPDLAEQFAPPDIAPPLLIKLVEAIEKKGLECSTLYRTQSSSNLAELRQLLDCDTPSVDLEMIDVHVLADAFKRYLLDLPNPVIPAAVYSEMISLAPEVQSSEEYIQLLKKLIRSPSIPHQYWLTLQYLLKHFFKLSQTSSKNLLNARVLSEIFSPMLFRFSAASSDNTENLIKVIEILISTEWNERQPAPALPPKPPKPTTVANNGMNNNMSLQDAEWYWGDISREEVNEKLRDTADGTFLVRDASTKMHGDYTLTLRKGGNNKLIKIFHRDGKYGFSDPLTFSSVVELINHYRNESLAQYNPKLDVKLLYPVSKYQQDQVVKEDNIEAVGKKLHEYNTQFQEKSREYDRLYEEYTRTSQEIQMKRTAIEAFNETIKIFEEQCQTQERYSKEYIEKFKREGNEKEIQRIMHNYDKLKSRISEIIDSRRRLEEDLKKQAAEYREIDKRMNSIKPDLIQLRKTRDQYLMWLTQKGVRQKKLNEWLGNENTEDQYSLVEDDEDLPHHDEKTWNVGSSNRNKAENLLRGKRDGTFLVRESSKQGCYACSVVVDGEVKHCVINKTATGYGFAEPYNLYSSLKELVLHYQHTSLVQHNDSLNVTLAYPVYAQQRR
PI3K β, sequence (P42338 whole entry): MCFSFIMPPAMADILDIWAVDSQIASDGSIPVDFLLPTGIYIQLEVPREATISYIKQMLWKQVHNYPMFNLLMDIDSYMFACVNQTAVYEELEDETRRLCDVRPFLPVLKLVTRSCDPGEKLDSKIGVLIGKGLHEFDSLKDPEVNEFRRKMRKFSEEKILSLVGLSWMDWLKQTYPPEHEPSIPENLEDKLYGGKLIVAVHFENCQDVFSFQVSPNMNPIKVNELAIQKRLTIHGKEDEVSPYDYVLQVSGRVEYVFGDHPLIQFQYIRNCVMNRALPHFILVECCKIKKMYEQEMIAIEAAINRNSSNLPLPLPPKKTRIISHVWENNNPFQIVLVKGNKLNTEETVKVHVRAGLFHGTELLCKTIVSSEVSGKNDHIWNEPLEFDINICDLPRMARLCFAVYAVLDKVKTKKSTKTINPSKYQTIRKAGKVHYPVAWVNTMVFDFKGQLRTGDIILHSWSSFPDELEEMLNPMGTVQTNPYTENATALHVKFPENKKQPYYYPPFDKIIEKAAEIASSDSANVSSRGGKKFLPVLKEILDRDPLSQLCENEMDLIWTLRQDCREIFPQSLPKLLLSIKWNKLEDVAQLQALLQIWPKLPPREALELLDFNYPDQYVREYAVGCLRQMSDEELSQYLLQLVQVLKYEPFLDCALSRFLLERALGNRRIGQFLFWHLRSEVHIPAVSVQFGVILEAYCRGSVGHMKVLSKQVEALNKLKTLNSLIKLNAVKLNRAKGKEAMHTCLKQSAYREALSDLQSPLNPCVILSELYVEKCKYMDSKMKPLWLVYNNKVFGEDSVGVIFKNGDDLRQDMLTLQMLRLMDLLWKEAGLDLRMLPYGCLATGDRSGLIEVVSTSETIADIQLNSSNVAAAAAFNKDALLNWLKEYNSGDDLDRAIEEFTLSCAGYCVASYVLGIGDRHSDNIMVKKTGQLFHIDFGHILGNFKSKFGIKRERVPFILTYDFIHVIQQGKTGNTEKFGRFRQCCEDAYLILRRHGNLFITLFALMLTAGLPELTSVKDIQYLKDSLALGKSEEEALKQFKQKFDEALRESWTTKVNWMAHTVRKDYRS
PI3K β, sequence (P27986 whole entry partner): as the sequence (P27986 whole entry partner) above

Row | SMILES | IC50 (PI3K γ) | IC50 (PI3K α) | IC50 (PI3K β) | IC50 (PI3K δ) | IC50 (mTORC) | other results
1 | Nc1nc2cc(-c3ccc4ncc(C(=O)NC5CC5)n4c3)ccc2o1 | < 0.1 µM | < 0.1 µM | < 10 µM | < 1 µM |  | IC50 (T47D cells): < 10 µM
2 | Nc1nc2cc(-c3ccc4ncc(N5CC(N6CCOCC6)C5)nc4n3)ccc2o1 | < 10 µM | < 0.1 µM | > 10 µM | < 10 µM | < 10 µM | 
3 | C[C@H]1CN(C2CN(c3cnc4ccc(-c5ccc6oc(N)nc6c5)nc4n3)C2)CCN1 | < 10 µM | < 0.1 µM | > 10 µM | < 10 µM | < 10 µM | 
4 | Nc1nc2cc(-c3ccc4ncc(N5C6CCC5COC6)nc4n3)ccc2o1 | < 0.1 µM | < 0.1 µM | > 10 µM | > 10 µM | > 10 µM | 
5 | Nc1nc2cc(-c3ccc4ncc(N5CC(N6CCN(CC7CC7)CC6)C5)nc4n3)ccc2o1 | < 10 µM | < 0.1 µM | < 10 µM | < 10 µM | > 10 µM | 
6 | CC(C)(N)C(=O)N1CCN(c2cnc3ccc(-c4ccc5oc(N)nc5c4)nc3n2)CC1 | < 10 µM | < 0.1 µM | < 10 µM | < 10 µM | > 10 µM | 
7 | Nc1nc2cc(-c3ccc4ncc(N5CCN(C(=O)C6(N)CC6)CC5)nc4n3)ccc2o1 | < 0.1 µM | < 0.1 µM | < 10 µM | < 10 µM | < 10 µM | 
8 | CC(C)N1CCN(c2cnc3ccc(-c4ccc5oc(N)nc5c4)nc3c2)CC1 | < 1 µM | < 0.1 µM | < 1 µM | < 1 µM | > 10 µM | 
9 | Nc1nc2cc(-c3ccc4ncc(N5CC(N6CCN(CCO)CC6)C5)nc4n3)ccc2o1 | < 10 µM | < 0.1 µM | < 10 µM | < 10 µM | > 10 µM | 
10 | CN1CC2CN(c3cnc4ccc(-c5ccc6oc(N)nc6c5)nc4n3)CC2C1 (centres unmarked) | < 10 µM | < 0.1 µM | < 1 µM | < 1 µM | > 10 µM | 
11 | CC(=O)Nc1nc2ccc(-c3ccc4nccc(-c5ccncc5)c4c3)cc2s1 [Compound 2] | < 1 µM | < 1 µM | > 10 µM | > 10 µM | > 10 µM | 
12 | Nc1ccc2cc(-c3ccc4nccc(-c5ccncc5)c4c3)ccc2n1 [Compound 5] | < 1 µM | < 1 µM | > 10 µM | < 10 µM | < 1 µM | 
13 | Cn1c(=O)n(-c2ccc(C(C)(C)C#N)cc2)c2c3cc(-c4ccc5oc(N)nc5c4)ccc3ncc21 [Compound 7] | < 0.1 µM | < 0.1 µM | < 0.1 µM | < 0.1 µM | < 0.1 µM | 
14 | Nc1nc2cccc(-c3ccc4nccc(-c5ccncc5)c4c3)c2o1 [Compound 15] | < 1 µM | < 0.1 µM | < 0.1 µM | < 1 µM | < 0.1 µM | 
15 | Nc1nc2cc(-c3ccc4ncnc(OC5CCOCC5)c4c3)ccc2o1 [Compound 47] | < 1 µM | < 0.1 µM | < 1 µM | < 1 µM | < 0.1 µM | 
16 | CS(=O)(=O)N1CCN(Cc2cc3nc(-c4cccc5[nH]ncc45)nc(N4CCOCC4)c3s2)CC1 [Pan-PI3K inhibitor, GDC0941] |  |  |  |  |  | reduction in tumor weight (MDA-MB-361 tumors): reduction in tumor weight; presence of MZB cells in mouse spleen (marginal zone B cells): reduced presence of MZB cells; B cell function in vivo (antibody production, % of vehicle control) [1]: blocks B cell function in vivo
17 | O=C(O)CCCc1ccc(N(CCCl)CCCl)cc1 [chlorambucil, 4-[bis(2-chloroethyl)amino]benzenebutanoic acid] |  |  |  |  |  | chemical stability [2]: largely hydrolyzed over the course of 24 hours
18 | CN(C)CC(=O)N1CCN(c2cnc3ccc(-c4ccc5oc(N)nc5c4)cc3n2)CC1 [drawing 329] | < 1 µM | < 0.1 µM | < 1 µM | < 1 µM | > 10 µM | 
19 | Nc1nc2cc(-c3ccc4ncc(N5CC(C(=O)N6CCOCC6)C5)nc4c3)ccc2o1 [drawing 359] | < 1 µM | < 0.1 µM | < 1 µM | < 1 µM | < 10 µM | 
20 | CN1CCN(C(=O)C2CN(c3cnc4ccc(-c5ccc6oc(N)nc6c5)cc4n3)C2)CC1 [drawing 360] | < 10 µM | < 0.1 µM | < 1 µM | < 1 µM | < 10 µM | 
21 | CC(C)[N+](C)(CCOC(=O)C1c2ccccc2Oc2ccccc21)C(C)C [propantheline] |  |  |  |  |  | plasma stability [3]: intermediate plasma stability
22 | CCCOc1cc(N)ccc1C(=O)OCCN(CC)CC [propoxycaine] |  |  |  |  |  | plasma stability [3]: low plasma stability
23 | CO[C@H]1C[C@@H]2CC[C@@H](C)[C@@](O)(O2)C(=O)C(=O)N2CCCC[C@H]2C(=O)O[C@H]([C@H](C)C[C@@H]2CC[C@@H](O)[C@H](OC)C2)CC(=O)[C@H](C)/C=C(\C)[C@@H](O)[C@@H](OC)C(=O)[C@H](C)C[C@H](C)/C=C/C=C/C=C/1C [rapamycin] |  |  |  |  |  | Akt phosphorylation [4]: enhances Akt phosphorylation; S6 phosphorylation [4]: inhibits S6 phosphorylation

Reference: patent US9682141B2, “Combination of kinase inhibitors and uses thereof” (INTELLIKINE LLC, priority 2011, dated 2017)
